# Key:
# [1] = test system: LTD4 evoked contractions of guinea pig ileum; experiment: Percent inhibition of LTD4 evoked ileal contractions (single submaximal LTD4 response, 5 minute drug exposure); format: cell-based, guinea pig (male, Hartley); conditions: Cavia porcellus; for inhibition at 1 µM: Compound concentration 1 × 10^-6 M; for inhibition at 0.3 µM: Compound concentration 3 × 10^-7 M; for inhibition at 0.1 µM: Compound concentration 1 × 10^-7 M; for inhibition at 0.01 µM: 5 min, Compound concentration 1 × 10^-8; for inhibition at 0.03 µM: Compound concentration 3 × 10^-8 M; for inhibition at 3 µM: Compound concentration 3 × 10^-6 M
# Procedure: Male, Hartley guinea pigs weighing 200-450 grams were killed by decapitation. A section of terminal ileum was removed, the lumen cleaned, and the tissue divided into 2.5 cm. segments. The ilea were mounted in 10 ml. tissue baths containing Krebs-bicarbonate solution of the following composition in mmoles/-liter: KCl, 4.6; CaCl2 ·2H2 O, 1.2; KH2 PO4, 1.2; MgSO4 ·7H2 O, 1.2; NaCl, 118.2; NaHCO3, 24.8; and dextrose, 10.0. The bath fluid was maintained at 37° C. and aerated with 95 percent oxygen and 5 percent CO2. In addition, the buffer contained 1×10^-6 M atropine to reduce ileal spontaneous activity. Isometric measurements were made with a Grass FTO3C force-displacement transducer and recorded on a Grass polygraph as change in grams of force. A passive force of 0.5 g. was applied to the tissues. After an appropriate equilibration period, single submaximal control responses to pure LTD4 were obtained. Following a five minute exposure of the ileum to an experimental drug, the control concentration of LTD was added to the tissue bath. The response of the ileum to LTD4 in the presence of the drug was compared to the response in the absence of the drug.
# [2] = target: T1, LTD4 evoked contractions of guinea pig ileum (Cavia porcellus, UniProt Q2NNR5); experiment: LTD4 antagonism, cumulative concentration-response curves (Schild pA2); format: cell-based; conditions: 30 minute incubation, negative log of KB
# T1 construct: A section of terminal ileum was removed, the lumen cleaned, and the tissue divided into 2.5 cm. segments; from tissue; host or cells: terminal ileum of male Hartley guinea pigs
# T1 sequence (Q2NNR5 1-340): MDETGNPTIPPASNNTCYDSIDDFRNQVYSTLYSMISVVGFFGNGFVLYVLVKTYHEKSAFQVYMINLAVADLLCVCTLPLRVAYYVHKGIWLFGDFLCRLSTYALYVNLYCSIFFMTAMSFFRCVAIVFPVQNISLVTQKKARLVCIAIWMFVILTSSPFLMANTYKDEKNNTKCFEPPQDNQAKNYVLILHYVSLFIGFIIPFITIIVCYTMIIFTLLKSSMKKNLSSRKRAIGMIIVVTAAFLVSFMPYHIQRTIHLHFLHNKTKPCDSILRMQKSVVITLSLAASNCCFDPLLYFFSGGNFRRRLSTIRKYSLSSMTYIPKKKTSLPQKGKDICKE
# Procedure: For some of the drugs in this series a more detailed analysis of LTD4 antagonism was made. In these experiments, cumulative concentration-response curves were obtained to LTD4 in guinea pig ileum and trachea. This was followed by a 30 minute incubation with various concentrations of the experimental drug. The concentration response curve to LTD4 was then repeated in the presence of the antagonist. Only one concentration of antagonist was used on a single tissue. KB values were calculated by the method of Furchgott [Ann. N.Y. Acad. Sci., 139, 553 (1967)] using the following equation. [formula]
# Dose ratio refers to the concentration of agonist required to elicit 50 percent of the maximal response (ED50) in the presence of the antagonist divided by the ED50 in the absence of the antagonist. Calculations were performed with the aid of a computer and a digital plotter.
Structure (SMILES),inhibition at 1 µM [1] [%],inhibition at 0.3 µM [1] [%],Kb [2] [nM],inhibition at 0.1 µM [1] [%],inhibition at 0.01 µM [1] [%],inhibition at 0.03 µM [1] [%],inhibition at 3 µM [1] [%],pA2 [2]
"CCCc1c(C=Cc2ccc(-c3nn[nH]n3)cc2)ccc(C(C)=O)c1O [Example 45, 5-[4-(2-[4-Acetyl-3-hydroxy-2-propylphenyl]ethenyl)phenyl]-tetrazole]",74,57,186,,,,,
"CCCc1c(COc2ccc(CCC(=O)O)cc2)ccc(C(C)=O)c1O [Example 15, 3-[4-(4-Acetyl-3-hydroxy-2-propylbenzyloxy)phenyl]propionic acid]",79,76,26.3,59,,,,
"CCCc1c(COc2ccc3cc(-c4nn[nH]n4)ccc3c2)ccc(C(C)=O)c1O [Example 41, 5-[2-(6-[4-Acetyl-3-hydroxy-2-propylbenzyloxy]naphthyl)]-tetrazole]",,,12.3,90,46,,,
"CCCc1c(COCCOc2ccc(-c3nnn[nH]3)cc2)ccc(C(C)=O)c1O [Example 52, 5-(4-[2-(4-Acetyl-3-hydroxy-2-propylbenzyloxy)ethoxy]phenyl)-tetrazole]",,83,49,67,,39,,
"CCCCC(=O)c1ccc(COc2ccc(CC(=O)O)cc2)c(CCC)c1O [Example 18, 4-(4-Pentanoyl-3-hydroxy-2-propylbenzyloxy)phenylacetic acid]",21,,2090,,,,65,
"CCCc1c(COc2ccc(C(=O)O)c(O)c2)ccc(C(C)=O)c1O [Example 13, 4-(4-Acetyl-3-hydroxy-2-propylbenzyloxy)-2-hydroxybenzoic acid]",97,85,26.9,69,30,59,,
"CCCc1c(COc2ccc(C(=O)O)cc2)ccc(C(=O)c2ccccc2)c1O [Example 17, 4-(4-Benzoyl-3-hydroxy-2-propylbenzyloxy)benzoic acid]",5,,4470,,,,35,
"CCCc1c(CNc2ccc(C(=O)O)cc2)ccc(C(C)=O)c1O [Example 47, 4-(4-Acetyl-3-hydroxy-2-propylbenzylamino)benzoic acid]",70,36,490,,,,,
"CCCc1c(CSc2ccc(-c3nnn[nH]3)cc2)ccc(C(C)=O)c1O [Example 40, 5-[4-(4 -Acetyl-3-hydroxy-2-propylbenzylthio)phenyl]-tetrazole]",,,20,79,,58,,
"CCCc1c(COc2ccc(-c3nnn[nH]3)cc2)ccc(C(C)=O)c1O [Example 32, 5-[4-(4-Acetyl-3-hydroxy-2-propylbenzyloxy)phenyl]tetrazole]",94,94,7.76,83,,,,
"CCCc1c(COCCCCc2nnn[nH]2)ccc(C(C)=O)c1O [Example 49, 5-[4-(4-Acetyl-3-hydroxy-2-propylbenzyloxy)butyl]-tetrazole]",64,36,550,,,,,
"CCCc1c(COc2ccc(-c3nnn[nH]3)c(O)c2)ccc(C(C)=O)c1O [Example 34, 5-[4-(4-Acetyl-3-hydroxy-2-propylbenzyloxy)-2-hydroxyphenyl]-tetrazole]",,98,8.71,97,50,80,,
"CCCc1c(COc2ccc(Cc3nnn[nH]3)cc2)ccc(C(C)=O)c1O [Example 33, 5-[4-(4-Acetyl-3-hydroxy-2-propylbenzyloxy)benzyl]-tetrazole]",100,94,7.59,92,31,81,,
"CCCc1c(COc2ccc(C(C)(C)c3nnn[nH]3)cc2)ccc(C(C)=O)c1O [Example 37, 5-[4-(4-Acetyl-3-hydroxy-2-propylbenzyloxy)-α,α-dimethylbenzyl]-tetrazole]",,90,17.4,81,,56,,
"CCCc1c(CSCc2ccc(-c3nnn[nH]3)cc2)ccc(C(C)=O)c1O [Example 38, 5-[4-(4-Acetyl-3-hydroxy-2-propylbenzylthiomethyl)phenyl]-tetrazole]",,51,316,29,,,,
"CCCc1c(COc2ccc(C(C)c3nnn[nH]3)cc2)ccc(C(C)=O)c1O (stereo not drawn) [Example 36, 5-[1-(4-[4-Acetyl-3-hydroxy-2-propylbenzyloxy]phenyl)ethyl]-tetrazole]",94,90,12.6,89,44,70,,
"CC(=O)c1ccc(COc2ccc(Cc3nnn[nH]3)cc2)c(CC(C)C)c1O [Example 42, 5-(4-[4-Acetyl-3-hydroxy-2-(2-methylpropyl)benzyloxy]benzyl)-tetrazole]",,88,20,86,34,60,,
"CCc1c(COc2ccc(Cc3nnn[nH]3)cc2)ccc(C(C)=O)c1O [Example 44, 5-[4-(4-Acetyl-3-hydroxy-2-ethylbenzyloxy)benzyl)-tetrazole]",,,12.6,88,41,78,,
"CC(=O)c1ccc(COc2ccc(-c3nnn[nH]3)cc2)c(C)c1O [Example 39, 5-[4-(4-Acetyl-3-hydroxy-2-methylbenzyloxy)phenyl]-tetrazole]",90,70,91.2,,,,,
"CCCc1c(COc2ccc3c(=O)cc(C(=O)O)oc3c2CCC)ccc(C(C)=O)c1O [Example 10, 7-(4-Acetyl-3-hydroxy-2-propylbenzyloxy)-4-oxo-8-propyl-4H-1-benzopyran-2-carboxylic acid]",97,86,,62,,,,7.42
"CCCc1c(C[S+]([O-])Cc2ccc(-c3nnn[nH]3)cc2)ccc(C(C)=O)c1O (stereo not drawn) [Example 53, 5-[4-(4-Acetyl-3-hydroxy-2-propylbenzylsulfinylmethyl)phenyl]-tetrazole]",,4,6310,14,,,39,
"CCCc1c(CNc2ccc(Cc3nnn[nH]3)cc2)ccc(C(C)=O)c1O [Example 43, 5-[4-(4-Acetyl-3-hydroxy-2-propylbenzylamino)benzyl]tetrazole]",,,31.6,77,,49,,
"CCCc1c(COc2ccc(OCC(=O)O)cc2)ccc(C(C)=O)c1O [Example 16, 4-(4-Acetyl-3-hydroxy-2-propylbenzyloxy)phenoxyacetic acid]",88,88,87.1,54,,,,
"CCCc1c(COc2ccc(CC(=O)O)cc2)ccc(C(C)=O)c1O [Example 12, 4-(4-Acetyl-3-hydroxy-2-propylbenzyloxy)phenylacetic acid]",91,77,60.3,66,,37,,
"CCCc1c(COc2ccc(CCc3nnn[nH]3)cc2)ccc(C(C)=O)c1O [Example 35, 5-[2-(4-[4-Acetyl-3-hydroxy-2-propylbenzyloxy]phenyl)ethyl]-tetrazole]",,90,8.32,84,,63,,
"CCCc1c(COc2ccc(C(=O)O)cc2)ccc(C(C)=O)c1O [Example 11, 4-(4-Acetyl-3-hydroxy-2-propylbenzyloxy)benzoic acid]",75,,234,,,,94,

# Reference: patent publication US5393768A, “Leukotriene antagonists” (Eli Lilly and Company, priority 1993, dated 1995)
